Patent publication US11066369B2, “N-(pyridin-2-yl)pyridine-sulfonamide derivatives and their use in the treatment of disease” (Novartis AG, priority 2016, dated 2021)
Where a name gives a salt, the structure may show the parent alone.

Experiments:
[1] = target: T1, horseradish peroxidase (HRP) tagged delF508-CFTR (Homo sapiens, UniProt P13569, DEL508-508); test: Measurement of delF508-CFTR-HRP surface expression in CFBE41o- cells; format: cell-based; conditions: delF508-CFTR-HRP surface expression, CFBE41o- cells; for EC50: read-out: DelF508-CFTR-HRP EC50; for Emax: read-out: DelF508-CFTR-HRP Amax %;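 on DelF508-CFTR-HRP Amax %: percent efficacy relative to reference corrector lumacaftor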
T1 construct: expressed in transfected cells
Method in brief: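 CFBE41o- bronchial epithelial cells stably expressing delF508-CFTR with HRP in the fourth extracellular loop; expression induced 48h with 500 ng/mL doxycycline, then compounds added (top 10 μM, 10-point 3-fold series, ≤0.5% DMSO) for 24h at 37° C. Surface HRP measured by luminescence with cell-impermeant substrate; EC50 from logistic fit of triplicates, plate-normalized to lowest concentration; efficacy also relative to a reference corrector.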

[2] = target: T2, delF508-CFTR (Homo sapiens, UniProt P13569, DEL508-508); test: Measurement of delF508-CFTR functional activity in primary human bronchial epithelial cells (HBECs) using Multi-Transepithelial Clamp Circuit (MTECC-24) assay; format: cell-based; conditions: primary CF HBECs; for MTECC24 CFHBEC- Amax %: test compound added 24h before assay plus potentiator, relative to reference combination (2 μM corrector + 0.5 μM potentiator); for EC50: test compound added 24h before assay, in the presence of potentiator, mean of at least two replicates, read-out: MTECC24 CFHBEC- EC50
T2 construct: functional activity of the CFTR channel (Chloride ion transport) in patient derived primary human bronchial epithelial cells; host or cells: patient-derived primary human bronchial epithelial cells (delF508-CFTR)
Method in brief: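 Patient-derived primary delF508-CFTR HBECs, differentiated at air-liquid interface ~2 weeks, treated basolaterally with compound for 24 h, then apical and basolateral compound in HEPES pH 7.4 assay medium. Equivalent short-circuit current (Ieq) recorded on MTECC-24 with sequential amiloride, forskolin, potentiator and INH-172; normalized to 0.1% DMSO, EC50 from curve fit.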

T2 sequence (P13569 with tags, fused parts or gaps DEL508-508): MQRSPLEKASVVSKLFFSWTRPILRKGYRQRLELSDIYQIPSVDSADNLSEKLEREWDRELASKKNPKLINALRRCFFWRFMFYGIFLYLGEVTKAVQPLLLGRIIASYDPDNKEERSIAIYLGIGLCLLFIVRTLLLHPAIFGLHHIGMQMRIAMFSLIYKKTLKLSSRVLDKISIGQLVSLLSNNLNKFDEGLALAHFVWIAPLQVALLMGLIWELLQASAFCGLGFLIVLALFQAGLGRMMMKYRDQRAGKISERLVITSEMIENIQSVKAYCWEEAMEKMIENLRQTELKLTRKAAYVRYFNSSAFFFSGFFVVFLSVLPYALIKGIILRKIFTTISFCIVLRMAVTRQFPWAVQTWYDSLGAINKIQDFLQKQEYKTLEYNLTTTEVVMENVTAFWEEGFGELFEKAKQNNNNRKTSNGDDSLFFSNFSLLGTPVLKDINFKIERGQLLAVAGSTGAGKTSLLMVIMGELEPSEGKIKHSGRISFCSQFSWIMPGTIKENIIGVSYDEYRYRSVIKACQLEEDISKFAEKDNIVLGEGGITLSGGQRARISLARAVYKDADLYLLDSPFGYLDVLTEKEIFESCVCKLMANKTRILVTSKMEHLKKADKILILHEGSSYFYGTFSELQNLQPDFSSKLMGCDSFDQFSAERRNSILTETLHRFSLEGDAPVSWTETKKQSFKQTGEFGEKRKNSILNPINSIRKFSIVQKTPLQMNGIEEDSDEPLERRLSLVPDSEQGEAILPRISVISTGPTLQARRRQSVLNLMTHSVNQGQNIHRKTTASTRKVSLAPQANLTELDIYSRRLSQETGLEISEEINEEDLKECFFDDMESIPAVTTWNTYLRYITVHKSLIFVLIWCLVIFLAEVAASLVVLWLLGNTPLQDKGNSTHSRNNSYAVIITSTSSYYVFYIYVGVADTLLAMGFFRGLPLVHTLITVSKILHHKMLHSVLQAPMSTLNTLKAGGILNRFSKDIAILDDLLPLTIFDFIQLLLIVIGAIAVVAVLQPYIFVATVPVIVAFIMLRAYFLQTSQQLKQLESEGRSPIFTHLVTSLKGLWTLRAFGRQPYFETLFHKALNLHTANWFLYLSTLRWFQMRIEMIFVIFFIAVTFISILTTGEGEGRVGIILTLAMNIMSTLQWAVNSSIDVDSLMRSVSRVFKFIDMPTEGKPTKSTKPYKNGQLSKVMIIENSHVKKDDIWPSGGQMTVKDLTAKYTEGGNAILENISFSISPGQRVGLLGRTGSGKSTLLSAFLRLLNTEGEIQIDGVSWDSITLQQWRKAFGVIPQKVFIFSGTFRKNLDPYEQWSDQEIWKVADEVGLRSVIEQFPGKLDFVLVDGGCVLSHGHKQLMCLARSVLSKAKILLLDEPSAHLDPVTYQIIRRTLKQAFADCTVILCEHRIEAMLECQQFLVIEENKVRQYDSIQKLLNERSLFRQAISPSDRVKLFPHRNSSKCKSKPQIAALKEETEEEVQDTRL
T1 sequence (P13569 with tags, fused parts or gaps DEL508-508): as above

Row | EC50 [1] [nM] | MTECC24 CFHBEC- Amax % [2] [%] | EC50 [2] [nM] | Emax [1] [%] | SMILES
1 | 1720 | 54.8 | 19.5 |  | Cc1cccc(C)c1-c1nc(NS(=O)(=O)c2cccc(O[C@H]3CC[C@@H](C(=O)O)CC3)n2)ccc1Cl [Example 129, (1s,4s)-4-((6-(N-(5-chloro-6-(2,6-dimethylphenyl)pyridin-2-yl)sulfamoyl)pyridin-2-yl)oxy)cyclohexane-1-carboxylic Acid]
2 | 2520 | 42.3 | 16.1 | 279 | Cc1cccc(C)c1-c1nc(NS(=O)(=O)c2cccc(N3CCNCC3=O)n2)ccc1Cl [Example 192, N-(5-chloro-6-(2,6-dimethylphenyl)pyridin-2-yl)-6-(2-oxopiperazin-1-yl)pyridine-2-sulfonamide hydrochloride]
3 | 1310 | 100.1 | 24 | 536 | Cc1cccc(Cl)c1-c1nc(NS(=O)(=O)c2cccc(N)n2)ccc1Cl [Example 13, 6-amino-N-(5-chloro-6-(2-chloro-6-methylphenyl)pyridin-2-yl)pyridine-2-sulfonamide]
4 | 2320 | 57.9 | 4.02 | 869 | Cc1c(F)cccc1-c1nc(NS(=O)(=O)c2cccc(N3CCC[C@@H](C(=O)O)C3)n2)ccc1C(F)(F)F [Example 358, (3R)-1-(6-{[6-(3-fluoro-2-methylphenyl)-5-(trifluoromethyl)pyridin-2-yl]sulfamoyl}pyridin-2-yl)piperidine-3-carboxylic Acid]
5 | 3450 | 79.6 | 164 | 308 | CN[C@@H]1CCN(c2cccc(S(=O)(=O)Nc3ccc(C(F)(F)F)c(-c4ccccc4C)n3)n2)C1 [Example 121, (R)-6-(3-(methylamino)pyrrolidin-1-yl)-N-(6-(o-tolyl)-5-(trifluoromethyl)pyridin-2-yl)pyridine-2-sulfonamide Hydrochloride]
6 | 1150 | 97.56 | 3 | 629 | Cc1cccc(C)c1-c1cc(C(F)(F)F)cc(NS(=O)(=O)c2cccc(N)n2)n1 [Example 5, 6-amino-N-(6-(2,6-dimethylphenyl)-4-(trifluoromethyl)pyridin-2-yl)pyridine-2-sulfonamide]
7 | 3090 | 57.0 | 191 | 493 | Cc1cccc(C)c1-c1nc(NS(=O)(=O)c2cccc(N3CCC(C(=O)O)CC3)n2)ccc1Cl [Example 247, 1-(6-(N-(5-chloro-6-(2,6-dimethylphenyl)pyridin-2-yl)sulfamoyl)pyridin-2-yl)piperidine-4-carboxylic Acid]
8 | 1610 | 58.6 | 3.2 | 902 | Cc1ccc(F)cc1-c1nc(NS(=O)(=O)c2cccc(N3CC(O)C3)n2)ccc1C(F)(F)F [Example 220, N-(6-(5-fluoro-2-methylphenyl)-5-(trifluoromethyl)pyridin-2-yl)-6-(3-hydroxyazetidin-1-yl)pyridine-2-sulfonamide]
9 | 1940 | 69.5 | 95 | 561 | COC(=O)C1(N)CCN(c2cccc(S(=O)(=O)Nc3ccc(Cl)c(-c4c(C)cccc4C)n3)n2)CC1 [Example 270, methyl 4-amino-1-(6-{[5-chloro-6-(2,6-dimethylphenyl)pyridin-2-yl]sulfamoyl}pyridin-2-yl)piperidine-4-carboxylate]
10 | 2600 | 67.2 | 11.7 | 448 | Cc1ccccc1-c1nc(NS(=O)(=O)c2cccc(N3CCC(C)(C(=O)O)CC3)n2)ccc1C(F)(F)F [Example 264, 4-methyl-1-(6-(N-(6-(o-tolyl)-5-(trifluoromethyl)pyridin-2-yl)sulfamoyl)pyridin-2-yl)piperidine-4-carboxylic Acid]
11 | 2290 | 67.1 | 27.8 | 203 | Cc1c(F)cccc1-c1nc(NS(=O)(=O)c2cccc(N3CCC(C)(C(=O)O)CC3)n2)ccc1Cl [Example 253, 1-(6-(N-(5-chloro-6-(3-fluoro-2-methylphenyl)pyridin-2-yl)sulfamoyl)pyridin-2-yl)-4-methylpiperidine-4-carboxylic Acid]
12 | 1790 | 56.3 | 51 | 875 | COC(=O)C1CCN(c2cccc(S(=O)(=O)Nc3ccc(Cl)c(-c4c(C)cccc4C)n3)n2)CC1 [Example 246, methyl 1-(6-(N-(5-chloro-6-(2,6-dimethylphenyl)pyridin-2-yl)sulfamoyl)pyridin-2-yl)piperidine-4-carboxylate]
13 | 2970 | 67.8 | 94.8 | 370 | Cc1ccccc1-c1nc(NS(=O)(=O)c2cccc(N3CCC[C@H](N)C3)n2)ccc1C(F)(F)F [Example 103, (S)-6-(3-aminopiperidin-1-yl)-N-(6-(o-tolyl)-5-(trifluoromethyl)pyridin-2-yl)pyridine-2-sulfonamide Hydrochloride]
14 | 2630 | 81.3 | 44.3 | 312 | Cc1ccc(C#N)cc1-c1nc(NS(=O)(=O)c2cccc(N3CC(C)(O)C3)n2)ccc1Cl [Example 305, N-(5-chloro-6-(5-cyano-2-methylphenyl)pyridin-2-yl)-6-(3-hydroxy-3-methylazetidin-1-yl)pyridine-2-sulfonamide]
15 | 1160 | 71.8 | 20.6 | 465 | Cc1cccc(C)c1-c1nc(NS(=O)(=O)c2cccc(N3CC(O)C3)n2)ccc1Cl [Example 231, N-(5-chloro-6-(2,6-dimethylphenyl)pyridin-2-yl)-6-(3-hydroxyazetidin-1-yl)pyridine-2-sulfonamide]
16 | 2080 | 51.9 | 11.3 |  | Cc1ccc(F)cc1-c1nc(NS(=O)(=O)c2cccc(N3CCCC(C)(C(=O)O)C3)n2)ccc1C(F)(F)F (stereo not drawn) [Example 361, 1-(6-{[6-(5-fluoro-2-methylphenyl)-5-(trifluoromethyl)pyridin-2-yl]sulfamoyl}pyridin-2-yl)-3-methylpiperidine-3-carboxylic Acid]
17 | 1730 | 46.1 | 51.2 | 240 | COc1ccc(F)cc1-c1nc(NS(=O)(=O)c2cccc(N)n2)ccc1Cl [Example 62, 6-amino-N-(5-chloro-6-(5-fluoro-2-methoxyphenyl)pyridin-2-yl)pyridine-2-sulfonamide]
18 | 2800 | 65.6 | 28 | 372 | Cc1ccccc1-c1nc(NS(=O)(=O)c2cccc(N3CCC(C)(N)CC3)n2)ccc1C(F)(F)F [Example 110, 6-(4-amino-4-methylpiperidin-1-yl)-N-(6-(o-tolyl)-5-(trifluoromethyl)pyridin-2-yl)pyridine-2-sulfonamide Hydrochloride]
19 | 2010 | 85.1 | 4.6 | 817 | Cc1ccccc1-c1nc(NS(=O)(=O)c2cccc(N[C@H]3CCOC[C@H]3O)n2)ccc1C(F)(F)F (single isomer, unassigned) [Example 277]
20 | 1870 | 77.0 | 3.3 | 779 | Cc1ccccc1-c1nc(NS(=O)(=O)c2cccc(N[C@@H]3CCOC[C@H]3O)n2)ccc1C(F)(F)F [Example 274, 6-(((3S,4R)-3-hydroxytetrahydro-2H-pyran-4-yl)amino)-N-(6-(o-tolyl)-5-(trifluoromethyl)pyridin-2-yl)pyridine-2-sulfonamide]
21 | 1060 | 94.2 | 14.5 | 482 | Cc1cccc(C)c1-c1nc(NS(=O)(=O)c2ccnc(N)c2)ccc1C(F)(F)F [Example 25, 2-amino-N-(6-(2,6-dimethylphenyl)-5-(trifluoromethyl)pyridin-2-yl)pyridine-4-sulfonamide]
22 | 2680 | 62.5 | 57.8 | 332 | Cc1ccc(F)cc1-c1nc(NS(=O)(=O)c2cccc(N3CCNCC3)n2)ccc1C(F)(F)F [Example 152, N-(6-(5-Fluoro-2-Methylphenyl)-5-(Trifluoromethyl)Pyridin-2-yl)-6-(Piperazin-1-yl)Pyridine-2-Sulfonamide Hydrochloride]
23 | 2620 | 74.0 | 103 | 251 | Nc1cc(S(=O)(=O)Nc2ccc(Cl)c(-c3ccccc3C(F)(F)F)n2)ccn1 [Example 61, 2-amino-N-(5-chloro-6-(2-(trifluoromethyl)phenyl)pyridin-2-yl)pyridine-4-sulfonamide]
